Laboratory results taken from US6737383B1, “Herbicidal oxadiazolidines” (priority 1999, dated 2004).

How the values were obtained:
bedstraw = test: Test B pre/postemergence bedstraw; format: in vivo, Galium aparine
In short: (§1)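 Test chemicals in a non-phytotoxic solvent mixture with surfactant were sprayed preemergence onto planted seeds and postemergence onto plants 2 to 18 cm tall (1- to 4-leaf stage). After twelve to sixteen days in a greenhouse, injury was visually rated against untreated controls from 0 (no effect) to 10 (complete control).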

blackgrass = test: Test B pre/postemergence blackgrass; format: in vivo, Alopecurus myosuroides
In short: as §1

surinam grass = test: Test B pre/postemergence surinam grass; format: in vivo, Brachiaria decumbens
In short: as §1

corn = test: Test B pre/postemergence corn; format: in vivo, Zea mays
In short: as §1

crabgrass = test: Test B pre/postemergence crabgrass; format: in vivo, Digitaria sanguinalis
In short: as §1

giant foxtail = test: Test B pre/postemergence giant foxtail; format: in vivo, Setaria faberii
In short: as §1

morningglory = test: Test B pre/postemergence morningglory; format: in vivo, Ipomoea hederacea
In short: as §1

pigweed = test: Test B pre/postemergence pigweed; format: in vivo, Amaranthus retroflexus
In short: as §1

rape = test: Test B pre/postemergence rape; format: in vivo, Brassica napus
In short: as §1

sugar beet = test: Test B pre/postemergence sugar beet; format: in vivo, Beta vulgaris
In short: as §1

wheat = test: Test B pre/postemergence wheat; format: in vivo, Triticum aestivum
In short: as §1

wild oat = test: Test B pre/postemergence wild oat; format: in vivo, Avena fatua
In short: as §1

purple nutsedge = test: Test B pre/postemergence purple nutsedge; format: in vivo, Cyperus rotundus
In short: as §1

rice = test: Test B flood test rice; format: in vivo, Oryza sativa; conditions: Pre-emergence
In short: (§2)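 Each value is a visual injury score relative to controls, with 10 meaning complete control and 0 no effect. Evaluation took place twelve to sixteen days after the 2-leaf-stage plants were treated and kept in the greenhouse.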

smallflower flatsedge = test: Test B flood test smallflower flatsedge; format: in vivo, Cyperus difformis; conditions: Pre-emergence
In short: as §2

bamyardgrass = test: Test B flood test barnyardgrass; format: in vivo, Echinochloa crus-galli; conditions: Pre-emergence
In short: as §2

[1] = Preemergence, Rate 62 g/ha, scale of 0 to 10 where 0 is no effect and 10 is complete control
[2] = Preemergence, Rate 250 g/ha, scale of 0 to 10 where 0 is no effect and 10 is complete control
[3] = Preemergence, Rate 500 g/ha, scale of 0 to 10 where 0 is no effect and 10 is complete control
[4] = Rate 62 g/ha, Postemergence, scale 0 to 10 (0 no effect, 10 complete control)
[5] = Rate 125 g/ha, Postemergence, scale of 0 to 10 where 0 is no effect and 10 is complete control
[6] = Rate 250 g/ha, Postemergence, scale of 0 to 10 where 0 is no effect and 10 is complete control
[7] = Rate 500 g/ha, Postemergence, scale 0 to 10, 0 no effect, 10 complete control
[8] = Rate 1000 g/ha, scale 0 to 10 (0 no effect, 10 complete control)
[9] = Rate 125 g/ha, flood test species, scale 0 to 10 where 0 is no effect and 10 is complete control
[10] = Rate 250 g/ha, flood-test species, scale 0 to 10, 0 is no effect, 10 is complete control
[11] = Rate 500 g/ha, flood test species, scale 0 to 10 (0 no effect, 10 complete control)

How did the “Bedstraw plant response rating” value (bedstraw; [1]) turn out when C=CCn1c(=O)on(C(=O)N(CC)C2CCCCC2)c1=O [Compound 307] was run?
The value was 0.

What about the “Bedstraw plant response rating (0 to 10 scale)” value (bedstraw; Preemergence, Rate 125 g/ha) of the same compound?
Its value is 0.

What about the “Bedstraw plant response rating” value (bedstraw; [2]) of the same compound?
Its value is 0.

And the “Bedstraw plant response rating” value (bedstraw; [3])?
The value was 0.

What about the “Bedstraw plant response rating” value (bedstraw; [4]) of the same compound?
The value was 0.

And the “Bedstraw plant response rating” value (bedstraw; [5])?
Its value is 0.

And the “Plant response rating, Bedstraw” value (bedstraw; [6])?
Its value is 0.

And the “Bedstraw plant response rating” value (bedstraw; [7])?
Its value is 0.

And the “Blackgrass plant response rating” value (blackgrass; [1])?
The value was 0.

And the “Blackgrass plant response rating (0 to 10 scale)” value (blackgrass; Preemergence, Rate 125 g/ha)?
Its value is 0.

What about the “Blackgrass plant response rating” value (blackgrass; [2]) of the same compound?
The value was 2.

What about the “Blackgrass plant response rating” value (blackgrass; [3]) of the same compound?
The value was 4.

What about the “Blackgrass plant response rating” value (blackgrass; [4]) of the same compound?
Its value is 0.

And the “Blackgrass plant response rating” value (blackgrass; [5])?
Its value is 0.

What about the “Plant response rating, Blackgrass” value (blackgrass; [6]) of the same compound?
Its value is 0.

And the “Blackgrass plant response rating” value (blackgrass; [7])?
Its value is 0.

What about the “B. signalgrass plant response rating” value (surinam grass; [1]) of the same compound?
The value was 0.

What about the “B. signalgrass plant response rating (0 to 10 scale, 0 is no effect, 10 is complete control)” value (surinam grass; Preemergence, Rate 125 g/ha) of the same compound?
Its value is 0.

And the “B. signalgrass plant response rating” value (surinam grass; [2])?
Its value is 0.

What about the “B. signalgrass plant response rating” value (surinam grass; [3]) of the same compound?
Its value is 4.

And the “B. signalgrass plant response rating” value (surinam grass; [4])?
Its value is 0.

And the “B. signalgrass plant response rating” value (surinam grass; [5])?
The value was 0.

And the “Plant response rating, B. signalgrass” value (surinam grass; [6])?
Its value is 0.

And the “B. signalgrass plant response rating” value (surinam grass; [7])?
Its value is 0.

What about the “Corn plant response rating” value (corn; [1]) of the same compound?
Its value is 0.

What about the “Corn plant response rating (0 to 10 scale)” value (corn; Preemergence, Rate 125 g/ha) of the same compound?
Its value is 0.

And the “Corn plant response rating” value (corn; [2])?
Its value is 0.

And the “Corn plant response rating” value (corn; [3])?
The value was 2.

What about the “Corn plant response rating” value (corn; [4]) of the same compound?
The value was 0.

What about the “Corn plant response rating” value (corn; [5]) of the same compound?
Its value is 0.

What about the “Plant response rating, Corn” value (corn; [6]) of the same compound?
Its value is 0.

And the “Corn plant response rating” value (corn; [7])?
The value was 0.

And the “Crabgrass plant response rating” value (crabgrass; [1])?
Its value is 0.

What about the “Crabgrass plant response rating (0 to 10 scale)” value (crabgrass; Preemergence, Rate 125 g/ha) of the same compound?
Its value is 0.

What about the “Crabgrass plant response rating” value (crabgrass; [2]) of the same compound?
Its value is 0.

What about the “Crabgrass plant response rating” value (crabgrass; [3]) of the same compound?
Its value is 2.

And the “Crabgrass plant response rating” value (crabgrass; [4])?
The value was 0.

What about the “Crabgrass plant response rating” value (crabgrass; [5]) of the same compound?
Its value is 0.

What about the “Plant response rating, Crabgrass” value (crabgrass; [6]) of the same compound?
Its value is 0.

And the “Giant foxtail plant response rating” value (giant foxtail; [1])?
Its value is 6.

What about the “Giant foxtail plant response rating (0 to 10 scale)” value (giant foxtail; Preemergence, Rate 125 g/ha) of the same compound?
The value was 8.

What about the “Giant foxtail plant response rating” value (giant foxtail; [2]) of the same compound?
Its value is 9.

What about the “Giant foxtail plant response rating” value (giant foxtail; [3]) of the same compound?
Its value is 9.

And the “Giant foxtail plant response rating” value (giant foxtail; [4])?
Its value is 0.

And the “Giant foxtail plant response rating” value (giant foxtail; [5])?
The value was 0.

And the “Plant response rating, Giant foxtail” value (giant foxtail; [6])?
Its value is 0.

And the “Morningglory plant response rating” value (morningglory; [1])?
The value was 0.

What about the “Morningglory plant response rating (0 to 10 scale)” value (morningglory; Preemergence, Rate 125 g/ha) of the same compound?
Its value is 0.

What about the “Morningglory plant response rating” value (morningglory; [2]) of the same compound?
Its value is 0.

And the “Morningglory plant response rating” value (morningglory; [3])?
The value was 0.

And the “Morningglory plant response rating” value (morningglory; [4])?
The value was 0.

And the “Morningglory plant response rating” value (morningglory; [5])?
The value was 2.

What about the “Plant response rating, Morningglory” value (morningglory; [6]) of the same compound?
The value was 2.

What about the “Redroot pigweed plant response rating” value (pigweed; [1]) of the same compound?
The value was 0.

What about the “Redroot pigweed plant response rating (0 to 10 scale)” value (pigweed; Preemergence, Rate 125 g/ha) of the same compound?
Its value is 0.

And the “Redroot pigweed plant response rating” value (pigweed; [2])?
Its value is 0.

And the “Redroot pigweed plant response rating” value (pigweed; [3])?
Its value is 4.

What about the “Redroot pigweed plant response rating” value (pigweed; [4]) of the same compound?
Its value is 0.

What about the “Redroot pigweed plant response rating” value (pigweed; [5]) of the same compound?
The value was 0.

And the “Plant response rating, Redroot pigweed” value (pigweed; [6])?
The value was 0.

And the “Rape plant response rating” value (rape; [1])?
Its value is 0.

What about the “Rape plant response rating (0 to 10 scale)” value (rape; Preemergence, Rate 125 g/ha) of the same compound?
The value was 0.

And the “Rape plant response rating” value (rape; [2])?
The value was 0.

And the “Rape plant response rating” value (rape; [3])?
Its value is 0.

What about the “Rape plant response rating” value (rape; [4]) of the same compound?
Its value is 0.

And the “Rape plant response rating” value (rape; [5])?
Its value is 0.

What about the “Plant response rating, Rape” value (rape; [6]) of the same compound?
The value was 0.

And the “Sugarbeets plant response rating” value (sugar beet; [1])?
Its value is 0.

And the “Sugarbeets plant response rating (0 to 10 scale)” value (sugar beet; Preemergence, Rate 125 g/ha)?
Its value is 0.

And the “Sugarbeets plant response rating” value (sugar beet; [2])?
The value was 0.

And the “Sugarbeets plant response rating” value (sugar beet; [3])?
The value was 2.

And the “Sugarbeets plant response rating” value (sugar beet; [4])?
Its value is 0.

And the “Sugarbeets plant response rating” value (sugar beet; [5])?
The value was 0.

And the “Plant response rating, Sugarbeets” value (sugar beet; [6])?
The value was 0.

And the “Wheat plant response rating” value (wheat; [1])?
The value was 0.

And the “Wheat plant response rating (0 to 10 scale)” value (wheat; Preemergence, Rate 125 g/ha)?
Its value is 0.

And the “Wheat plant response rating” value (wheat; [2])?
Its value is 0.

What about the “Wheat plant response rating” value (wheat; [3]) of the same compound?
The value was 0.

What about the “Wheat plant response rating” value (wheat; [4]) of the same compound?
The value was 0.

What about the “Wheat plant response rating” value (wheat; [5]) of the same compound?
Its value is 0.

And the “Plant response rating, Wheat” value (wheat; [6])?
The value was 0.

And the “Wild oats plant response rating” value (wild oat; [1])?
The value was 0.

What about the “Wild oats plant response rating (0 to 10 scale)” value (wild oat; Preemergence, Rate 125 g/ha) of the same compound?
Its value is 0.

And the “Wild oats plant response rating” value (wild oat; [2])?
Its value is 0.

What about the “Wild oats plant response rating” value (wild oat; [3]) of the same compound?
Its value is 8.

What about the “Wild oats plant response rating” value (wild oat; [4]) of the same compound?
Its value is 0.

And the “Wild oats plant response rating” value (wild oat; [5])?
The value was 0.

What about the “Plant response rating, Wild oats” value (wild oat; [6]) of the same compound?
Its value is 0.

And the “Nutsedge plant response rating” value (purple nutsedge; [1])?
The value was 0.

What about the “Nutsedge plant response rating (0 to 10 scale)” value (purple nutsedge; Preemergence, Rate 125 g/ha) of the same compound?
The value was 0.

And the “Nutsedge plant response rating” value (purple nutsedge; [2])?
Its value is 0.

What about the “Nutsedge plant response rating” value (purple nutsedge; [3]) of the same compound?
The value was 0.

And the “Nutsedge plant response rating” value (purple nutsedge; [4])?
Its value is 0.

And the “Nutsedge plant response rating” value (purple nutsedge; [5])?
Its value is 0.

And the “Plant response rating, Nutsedge” value (purple nutsedge; [6])?
The value was 0.

And the “Rice plant response rating” value (rice; [8])?
The value was 0.

What about the “Rice plant response rating” value (rice; [9]) of the same compound?
Its value is 0.

What about the “Rice plant response rating” value (rice; [10]) of the same compound?
The value was 0.

What about the “Rice plant response rating” value (rice; [11]) of the same compound?
The value was 0.

What about the “S. Flatsedge plant response rating” value (smallflower flatsedge; [8]) of the same compound?
Its value is 0.

What about the “S. Flatsedge plant response rating” value (smallflower flatsedge; [9]) of the same compound?
Its value is 0.

And the “S. Flatsedge plant response rating” value (smallflower flatsedge; [10])?
The value was 0.

And the “S. Flatsedge plant response rating” value (smallflower flatsedge; [11])?
The value was 0.

And the “Barnyardgrass plant response rating” value (bamyardgrass; [8])?
Its value is 0.

And the “Barnyardgrass plant response rating” value (bamyardgrass; [9])?
The value was 0.

What about the “Barnyardgrass plant response rating” value (bamyardgrass; [10]) of the same compound?
Its value is 0.

What about the “Barnyardgrass plant response rating” value (bamyardgrass; [11]) of the same compound?
The value was 0.
